Measured values taken from patent US20260102407A1, “TREATMENT METHODS” (priority 2020, published 2026).

Key:
[1] = tested on: HMEC-1; assay: Endothelial proliferation assay using the xCELLigence system; type: cell-based, human; settings: for serum-inducible endothelial proliferation (xCELLigence cell index): HMEC-1, 5% FBS, 0.2-1 μM, 79 h
Protocol: Endothelial proliferation assay using the xCELLigence system. HMEC-1 proliferation was evaluated using the xCELLigence System (Roche, Castle Hill). Briefly, HMEC-1 (5×10^3 cells/well) were seeded in a 96-well E-plate and inserted into the xCELLigence RTCA station (Roche). Cells were serum-deprived for 24 h in MCDB131 medium which contained 10 ng/ml EGF (Sigma-Aldrich) and 1 μg/ml hydrocortisone (Sigma-Aldrich) then treated with compound (0.2-1 μM) in medium containing 5% FBS, 10 ng/ml EGF (Sigma-Aldrich) and 1 μg/ml hydrocortisone (Sigma-Aldrich). Cell growth was monitored automatically every 15 min by xCELLigence system. Cell index (CI) represents a quantitative measure of each well cell growth. In this system, CI a unitless parameter that reports impedance of electron flow caused by adherent cells.

[2] = tested on: BAEC; assay: Endothelial dual chamber migration assay toward VEGF-A165; type: cell-based, bovine; settings: 1 μM; Transwell; 10% FBS and 50 ng/ml VEGF-A165 in lower chamber; 24 h
Protocol: Endothelial dual chamber migration assay. BAEC (6×10^3 cells/well) suspended in DMEM supplemented with 10% FBS were seeded into the upper chamber of 24-well plates fitted with Millicell cell culture inserts (cat. PI8P01250, Millipore). After 48 h, the medium was changed to DMEM supplemented with 0.01% FBS and the cells were incubated for 48 h. Compounds prepared in DMEM containing 0.01% FBS were added to the upper chamber. VEGF-A165 (50 ng/ml, Sigma, cat. V7259) in medium containing 10% FBS was added to the lower chamber. After 24 h, medium from the upper chamber was removed and a cotton swab was used to remove non-migrated cells and excess liquid. The insert was placed in 70% ethanol for 10 min to allow cell fixation and membranes were dried for 10-15 min. Filters were excised and placed on slides. Mounting medium (Fluoroshield™ with DAPI, Sigma, cat. 6057) was added and specimens were visualized using an EVOS FL microscope.

[3] = tested on: HMEC-1; assay: Endothelial repair following in vitro injury (scratch assay); type: cell-based, human; settings: 0.6 μM, 5% FBS, 48 h
Protocol: Endothelial repair following in vitro injury. HMEC-1 (90-100% confluency) in 6-well plates were washed with PBS, and treated with 0.6 μM compound in MCDB131 containing 5% FBS. A sterile pointed toothpick was used to scrape the cell monolayer and the wells photographed under 4× objective at 0 h and 48 h. Cell regrowth in the denuded zone was determined using Image-Pro Plus (Cybernetics, USA).

[4] = tested on: CD31; assay: Matrigel plug assay, CD31 staining; type: in vivo; settings: C57BL/6 mice; 2.5 mg/mouse in plug with VEGF-A165 and heparin; 7 days
Protocol: Matrigel plug assay. Matrigel (500 μl) containing VEGF-A165 (100 ng/ml), heparin (10U) and BT2 or BT3 (2.5 mg/mouse) or its vehicle (saline containing 0.01% DMSO and 0.5% Tween 80) was injected subcutaneously into the left flanks of male 8 week-old C57BL/6 mice. After 7d the mice were sacrificed by CO2 asphyxiation and the plugs carefully removed. Formalin-fixed paraffin embedded sections were prepared from Matrigel plugs for immunohistological assessment. Heat-induced epitope retrieval was applied to all deparaffinized sections (4 μm Superfrost slides) in citrate buffer, pH 6 for 5 min at 110° C. Immunostaining for all groups with a given antibody was performed simultaneously and development time was identical. […]
Slides were scanned using an Aperio ScanScope XT slide scanner (Leica Biosystems, Mt Waverley, Vic Australia) and images captured using ImageScope software (Leica Biosystems). Positive intraplug staining was assessed using Image-Pro Plus software (Cybernetics, Bethesda, MD) in 5-12 randomly selected fields of view for each plug photographed under 10× (CD31), 20× (VCAM-1) and 40× (FosB) objectives and expressed as integrated optical density (IOD, the product of calibrated intensity (optical density) and area, i.e. IOD=intensity (mean)×area) (Media Cybernetics) (Liu, H., et al., Sci Rep 6, 21319 (2016)). […]

[5] = biological target: T1, Recombinant human His-MEK1 (Homo sapiens, UniProt Q02750); assay: SPR (Biacore T200) on immobilised His-MEK1; type: binding; settings: 15° C.; 20 mM HEPES, 150 mM NaCl, 5% DMSO pH 7.4
T1 construct: purchased ThermoFisher Scientific PV3303
T1 sequence (Q02750 whole entry): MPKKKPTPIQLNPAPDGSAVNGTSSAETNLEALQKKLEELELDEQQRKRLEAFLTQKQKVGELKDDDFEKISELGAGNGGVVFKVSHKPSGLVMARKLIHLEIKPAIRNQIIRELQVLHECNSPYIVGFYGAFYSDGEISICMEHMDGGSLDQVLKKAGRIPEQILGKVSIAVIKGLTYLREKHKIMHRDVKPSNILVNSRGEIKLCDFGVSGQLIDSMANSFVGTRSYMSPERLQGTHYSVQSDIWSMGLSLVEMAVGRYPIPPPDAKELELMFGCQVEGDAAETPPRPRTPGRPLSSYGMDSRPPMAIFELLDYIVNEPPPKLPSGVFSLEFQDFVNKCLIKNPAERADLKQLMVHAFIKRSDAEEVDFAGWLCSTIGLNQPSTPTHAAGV
Protocol: (§1) SPR. SPR was performed on a Biacore T200. The active and reference flow cells of a Xantec NIHMC Ni sensor chip were conditioned with 0.5M NaEDTA followed by 5 mM NiCl2 in immobilisation buffer (20 mM HEPES, 150 mM NaCl, pH 7.4). Recombinant human His-MEK1 and His-MEK2 (500 nM, ThermoFisher Scientific, cat. PV3303 and PV3615, respectively) were injected for 15 min at 10 μl min^−1 over separate active flow cells. All immobilisation was carried out at 25° C. Following immobilisation, the temperature was lowered to 15° C., and the buffer changed to 20 mM HEPES, 150 mM NaCl, 5% DMSO pH 7.4. Samples of PD98059 (2.5-30 μM in running buffer) and BT2 (1.25-15 μM) were injected at a flow rate of 30 μl min^−1 over immobilised MEK1 and MEK2. Solvent correction was applied to the data using a DMSO standard curve. Data were analysed using the Biacore T200 Evaluation software. Prior to SPR, limits of compound solubility were determined using ^1H 1D NMR.

[6] = biological target: T2, Recombinant human His-MEK2 (Homo sapiens, UniProt P36507); assay: SPR (Biacore T200) on immobilised His-MEK2; type: binding; settings: 15° C.; 20 mM HEPES, 150 mM NaCl, 5% DMSO pH 7.4
T2 construct: purchased ThermoFisher Scientific PV3615
T2 sequence (P36507 whole entry): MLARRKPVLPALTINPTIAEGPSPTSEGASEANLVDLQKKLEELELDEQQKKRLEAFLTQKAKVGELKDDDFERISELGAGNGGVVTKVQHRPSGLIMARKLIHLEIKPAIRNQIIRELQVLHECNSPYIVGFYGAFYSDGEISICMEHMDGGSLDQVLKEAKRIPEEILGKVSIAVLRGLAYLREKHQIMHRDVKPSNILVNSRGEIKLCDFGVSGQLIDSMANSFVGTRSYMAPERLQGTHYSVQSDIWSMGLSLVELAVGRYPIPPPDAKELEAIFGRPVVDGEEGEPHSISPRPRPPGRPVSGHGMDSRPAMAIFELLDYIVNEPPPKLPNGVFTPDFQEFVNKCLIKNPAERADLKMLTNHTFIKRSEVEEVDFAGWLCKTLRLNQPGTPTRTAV
Protocol: as §1

| Structure (SMILES) | serum-inducible endothelial proliferation (xCELLigence cell index) [1] | biological activity of formulation after autoclaving ([1]; autoclaved (121° C., 15 psi, 20 min), 4 months storage at 22° C., 0.4, 0.8 μM) | biological efficacy of stored formulation ([1]; heat-treated or not, storage up to 16 months) | inhibition of serum-inducible endothelial proliferation by stored formulation ([1]; with or without 100° C. for 10 min, 6 weeks storage, 0.4, 0.8 μM) | migration of BAEC toward VEGF-A165 [2] | endothelial regrowth after mechanical injury in vitro [3] | new blood vessel formation (CD31 staining) in Matrigel plugs [4] | binding to His-MEK1 (SPR) [5] | binding to His-MEK2 (SPR) [6] |
| --- | --- | --- | --- | --- | --- | --- | --- | --- | --- |
| CCOC(=O)Nc1ccc2c(c1)C(=O)N(CC)c1ccccc1O2 [BT2, (10-ethyl-11-oxo-10,11-dihydro-dibenzo[b,f][1,4]oxazepin-2-yl)-carbamic acid ethyl ester] | inhibited serum-inducible proliferation at concentrations in a dose-dependent manner | biologically active | no loss in biological efficacy | retained its ability to inhibit serum-inducible endothelial proliferation | inhibited migration | blocked this reparative response | suppressed new blood vessel formation | bound to His-MEK1 significantly better than to His-MEK2 | bound to His-MEK1 significantly better than to His-MEK2 |
| CCN1C(=O)c2cc(N)ccc2Oc2ccccc21 [BT3, 2-amino-10-ethyldibenzo[b,f][1,4]oxazepin-11 (10H)-one] | no inhibitory effect |  |  |  | neither BT3, nor PD98059 (allosteric MEK inhibitor), imatinib (tyrosine kinase inhibitor) or tofacitinib (Janus kinase inhibitor) had an inhibitory effect | no such effect | no effect | no appreciable binding | no appreciable binding |
